From patent publication US20250179094A1, “TGF-B INHIBITOR COMPOUND AND USE THEREOF” (Medinno Pharmaceutical Technology (Zhuhai) Co., Ltd., priority 2022, published 2025)

Molecular target: human TGFβR1 (Homo sapiens (Human), UniProt P36897)
Test: TGFβR1 kinase activity assay (ADP-Glo method)
Type: biochemical
Conditions: ATP 5 uM, TGFβR1tide substrate, 60 minutes at room temperature
Experimental: The principle of the activity assay was that TGFβR1 phosphorylates the substrate TGFβR1tide, consuming ATP in the process. […] The specific experimental steps were as follows. Compounds were diluted 4-fold in DMSO in a dilution plate, with the final starting concentration of the compounds being 10 μM, across 10 concentration gradient points. The compounds were then further diluted 50-fold into the kinase reaction buffer and incubated on a shaker for 20 minutes. Kinase was formulated with an enzyme reaction buffer. 2 μl kinase was added to each well of the reaction plate. 1 μl of the compound diluted in buffer was added to each well, and then the plate was sealed with a sealing membrane and centrifuged at 1000 g for 30 seconds, leaving it at room temperature for 10 minutes. Solutions of TGFβR1tide and ATP were prepared with the kinase reaction buffer, and 2 μL of the TGFβR1tide/ATP solution was added to the reaction plate. The plate was sealed with a sealing film and centrifuged at 1000 g for 30 seconds. It was allowed to react at room temperature for 60 minutes. Subsequently, 4 μL of ADP-Glo was transferred to a 384-well reaction plate and centrifuged at 1000 rpm/min for 1 minute, followed by incubation at 25° C. for 40 minutes. Then, 8 μL of Detection solution was transferred to the 384-well reaction plate and centrifuged at 1000 rpm/min for 1 minute, after which it was incubated at 25° C. for 40 minutes. The RLU (Relative Luminescence Unit) signal was read using a BMG microplate reader, which was used to characterize the degree of kinase activity.
3.1 The inhibition rate was calculated as follows: inhibition rate of compound (% inh)=100%−(compound−positive control)/(negative control−positive control)*100%.
The IC50 (half inhibition concentration) of a compound was obtained using the following non-linear fitting equation, wherein data analysis was performed using Graphpad 7.0 software.
X: log value of compound concentration; and Y: inhibition rate (% inhibition)

Sequence of human TGFβR1 (P36897 34-503): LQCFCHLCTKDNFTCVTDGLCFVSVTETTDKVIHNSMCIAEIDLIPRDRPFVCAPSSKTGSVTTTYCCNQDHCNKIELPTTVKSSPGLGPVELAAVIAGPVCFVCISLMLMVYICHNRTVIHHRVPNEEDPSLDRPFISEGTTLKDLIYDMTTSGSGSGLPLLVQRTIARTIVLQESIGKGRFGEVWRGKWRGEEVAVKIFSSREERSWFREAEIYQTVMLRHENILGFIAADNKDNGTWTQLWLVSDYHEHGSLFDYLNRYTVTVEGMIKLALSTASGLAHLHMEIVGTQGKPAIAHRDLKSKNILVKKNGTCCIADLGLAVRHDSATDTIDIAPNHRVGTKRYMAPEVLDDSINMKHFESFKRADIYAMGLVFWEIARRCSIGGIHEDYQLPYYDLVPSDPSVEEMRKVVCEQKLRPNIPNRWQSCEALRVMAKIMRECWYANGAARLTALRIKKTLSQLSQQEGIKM

IC50 [nM]	Compound
7.9	Cc1cccc(-c2nc3n(c2-c2ccnc(-c4nc5c([nH]4)CN(C(=O)N4CCOCC4)C5)c2)CCC3)n1 [Compound 14]
2.3	CCN(C)C(=O)N1Cc2nc(-c3cc(-c4c(-c5cccc(C)n5)nc5n4CCC5)ccn3)[nH]c2C1 [Compound 32, N-Ethyl-N-methyl-2-(4-(2-(6-methylpyridin-2-yl)-6,7-dihydro-5H-pyrrolo[1,2-a]imidazol-3-yl)pyridin-2-yl)-4,6-dihydropyrrolo[3,4-d]imidazol-5(1H)-carboxamide]
1.6	Cc1cccc(-c2nc3n(c2-c2ccnc(-c4nc5c([nH]4)CN(S(C)(=O)=O)CC5)c2)CCC3)n1 [Compound 63, 2-(4-(2-(6-methylpyridin-2-yl)-6,7-dihydro-5H-pyrrolo[1,2-a]imidazol-3-yl)pyridin-2-yl)-5-(methylsulfonyl)-4,5,6,7-tetrahydro-3H-imidazolo[4,5-c]pyridine]
1.3	Cc1cccc(-c2nn3c(c2-c2ccnc(-c4nc5c([nH]4)CN(S(=O)(=O)C(C)C)C5)c2)CCC3)n1 [Compound 69, 5-(Isopropylsulfonyl)-2-(4-(2-(6-methylpyridin-2-yl)-5,6-dihydro-4H-pyrrolo[1,2-b]pyrazol-3-yl)pyridin-2-yl)-1,4,5,6-tetrahydropyrrolo[3,4-d]imidazole]
1.8	Cc1cccc(-c2nn(C)cc2-c2ccnc(-c3nc4c([nH]3)CN(C(=O)N(C)C)C4)c2)n1 [Compound 58, N,N-Dimethyl-2-(4-(1-methyl-3-(6-methylpyridin-2-yl)-1H-pyrazol-4-yl)pyridin-2-yl)-4,6-dihydropyrrolo[3,4-d]imidazol-5(1H)-carboxamide]
3.8	Cc1cccc(-c2nc3n(c2-c2ccnc(-c4nc5c([nH]4)CN(C(=O)N4CCN(C)CC4)C5)c2)CCC3)n1 [Compound 4, (4-methylpiperazin-1-yl)(2-(4-(2-(6-methylpyridin-2-yl)-6,7-dihydro-5H-pyrrolo[1,2-a]imidazol-3-yl)pyridin-2-yl)-4,6-dihydropyrrolo[3,4-d]imidazol-5(1H)-yl)ketone]
5.7	COC(=O)N1Cc2nc(-c3cc(-c4c(-c5cccc(C)n5)nc5n4CCC5)ccn3)[nH]c2C1 [Compound 30, Methyl 2-(4-(2-(6-Methylpyridin-2-yl)-6,7-dihydro-5H-pyrrolo[1,2-alimidazol-3-yl)pyridin-2-yl)-4,6-dihydropyrrolo[3,4-d]imidazol-5(1H)-carboxylate]
1.8	CCn1cc(-c2ccnc(-c3nc4c([nH]3)CN(C(=O)N(C)C)C4)c2)c(-c2cccc(C)n2)n1 [Compound 60, 2-(4-(1-Ethyl-3-(6-methylpyridin-2-yl)-1H-pyrazol-4-yl)pyridin-2-yl)-N,N-dimethyl-4,6-dihydropyrrolo[3,4-d]imidazol-5(1H)-carboxamide]
2	Cc1cccc(-c2nn(C)cc2-c2ccnc(-c3nc4c([nH]3)CN(S(C)(=O)=O)C4)c2)n1 [Compound 39, 2-[4-(1-Methyl-3-(6-methylpyridin-2-yl)-1H-pyrazol-4-yl)pyridin-2-yl]-5-(methylsulfonyl)-1,4,5,6-tetrahydropyrrolo[3,4-d]imidazole]

Continued, compound first:

Compound	IC50 [nM]
Cc1cccc(-c2nn(CC3CC3)cc2-c2ccnc(-c3nc4c([nH]3)CN(S(C)(=O)=O)C4)c2)n1 [Compound 47, 2-[4-(1-(Cyclopropylmethyl)-3-(6-methylpyridin-2-yl)-1H-pyrazol-4-yl)pyridin-2-yl]-5-(methylsulfonyl)-1,4,5,6-tetrahydropyrrolo[3,4-d]imidazole]	3.4
Cc1cccc(-c2nc3n(c2-c2ccnc(-c4nc5c([nH]4)CN(C(=O)N(C)C)C5)c2)CCC3)n1 [Compound 29, N,N-Dimethyl-2-(4-(2-(6-methylpyridin-2-yl)-6,7-dihydro-5H-pyrrolo[1,2-a]imidazol-3-yl)pyridin-2-yl)-4,6-dihydropyrrolo[3,4-d]imidazol-5(1H)-carboxamide]	0.18
Cc1cccc(-c2nn3c(c2-c2ccnc(-c4nc5c([nH]4)CN(C(=O)N(C)C)C5)c2)CCC3)n1 [Compound 67, N,N-Dimethyl-2-(4-(2-(6-methylpyridin-2-yl)-5,6-dihydro-4H-pyrrolo[1,2-b]pyrazol-3-yl)pyridin-2-yl)-4,6-dihydropyrrolo[3,4-d]imidazole-5(1H)-carboxamide]	2
Cc1cccc(-c2nn(Cc3ccccc3F)cc2-c2ccnc(-c3nc4c([nH]3)CN(S(C)(=O)=O)C4)c2)n1 [Compound 51, 2-[4-(1-(2-Fluorobenzyl)-3-(6-methylpyridin-2-yl)-1H-pyrazol-4-yl)pyridin-2-yl]-5-(methylsulfonyl)-1,4,5,6-tetrahydropyrrolo[3,4-d]imidazole]	5.6
Cc1cccc(-c2nc3n(c2-c2ccnc(-c4nc5c([nH]4)CN(CC4CC(O)C4)C5)c2)CCC3)n1 (stereo not shown) [Compound 26, 3-((2-(4-(2-(6-Methylpyridin-2-yl)-6,7-dihydro-5H-pyrrolo[1,2-a]imidazol-3-yl)pyridin-2-yl)-4,6-dihydropyrrolo[3,4-d]imidazol-5(1H)-yl)methyl)cyclobutanol]	4.1
CNC(=O)N1Cc2nc(-c3cc(-c4c(-c5cccc(C)n5)nc5n4CCC5)ccn3)[nH]c2C1 [Compound 28]	19
Cc1cccc(-c2nn(Cc3ccccn3)cc2-c2ccnc(-c3nc4c([nH]3)CN(S(C)(=O)=O)C4)c2)n1 [Compound 53, 2-[4-(3-(6-Methylpyridin-2-yl)-1-(pyridin-2-ylmethyl)-1H-pyrazol-4-yl)pyridin-2-yl]-5-(methylsulfonyl)-1,4,5,6-tetrahydropyrrolo[3,4-d]imidazole]	2.5
CCS(=O)(=O)N1Cc2nc(-c3cc(-c4cn(C)nc4-c4cccc(C)n4)ccn3)[nH]c2C1 [Compound 52, 5-(Ethylsulfonyl)-2-[4-(1-methyl-3-(6-methylpyridin-2-yl)-1H-pyrazol-4-yl)pyridin-2-yl]-1,4,5,6-tetrahydropyrrolo[3,4-d]imidazole]	2.1
Cc1cccc(-c2n[nH]cc2-c2ccnc(-c3nc4c([nH]3)CNCC4)c2)n1 [Compound 76]	13
Cc1cccc(-c2nn(C(C)C)cc2-c2ccnc(-c3nc4c([nH]3)CN(S(C)(=O)=O)C4)c2)n1 [Compound 46, 2-[4-(1-Isopropyl-3-(6-methylpyridin-2-yl)-1H-pyrazol-4-yl)pyridin-2-yl]-5-(methylsulfonyl)-1,4,5,6-tetrahydropyrrolo[3,4-d]imidazole]	1.7
Cc1cccc(-c2nn(Cc3ccccc3)cc2-c2ccnc(-c3nc4c([nH]3)CN(S(C)(=O)=O)C4)c2)n1 [Compound 48, 2-[4-(1-Benzyl-3-(6-methylpyridin-2-yl)-1H-pyrazol-4-yl)pyridin-2-yl]-5-(methylsulfonyl)-1,4,5,6-tetrahydropyrrolo[3,4-d]imidazole]	1.6
Cc1cccc(-c2nn(CC3CC(O)C3)cc2-c2ccnc(-c3nc4c([nH]3)CN(S(C)(=O)=O)C4)c2)n1 (stereo not shown) [Compound 49, 3-((3-(6-Methylpyridin-2-yl)-4-(2-(5-(methylsulfonyl)-1,4,5,6-tetrahydropyrrolo[3,4-d]imidazol-2-yl)pyridin-4-yl)-1H-pyrazol-1-yl)methyl)cyclobutanol]	3
Cc1cccc(-c2nc3n(c2-c2ccnc(-c4nc5c([nH]4)CN(C(=O)C4CC(O)C4)C5)c2)CCC3)n1 (stereo not shown) [Compound 10, (3-Hydroxycyclobutyl)(2-(4-(2-(6-methylpyridin-2-yl)-6,7-dihydro-5H-pyrrolo[1,2-a]imidazol-3-yl)pyridin-2-yl)-4,6-dihydropyrrolo[3,4-d]imidazol-5(1H)-yl)ketone]	2.2
